Patent US20230087844A1, “USE OF N2-QUINCLINE OR ISOQUINOLINE SUBSTITUTED PURINE DERIVATIVES IN CANCER TREATMENT” (SHANGHAI HUAYU BIOTECHNOLOGY CO., LTD., priority 2020, published 2023)

How the values were obtained:
HL-60 = test: MTT tumor cell proliferation, HL-60; assay type: cell-based; conditions: Homo sapiens; HL-60, Acute promyelocytic leukemia, 72 hour
Procedure: (§1) as an exemplary compound of formula (I), was tested for its inhibitory effect on tumor cell proliferation in a MTT assay.
(§2) Briefly, cells at the log phase were collected, suspended in the cell culture medium at 4*10^4/ml density, and plated in 96-well plates, 90 μl per well. The plates were kept in a 5% CO2 and 37° C. incubator for 2 hours, and then added with 100 μg/ml, 10 μg/ml, 1 μg/ml, 0.1 μg/ml, 0.01 μg/ml or 0.001 μg/ml Compound A, 4 replicates for each cell at each compound concentration. DMSO was used in the positive control group, and another negative group was also set. After 72 hour incubation in the same incubator, 20 μl 5 mg/ml MTT reagent was added to each well. After another 4 hour incubation, each well was added with 100 μl SDS and further incubated for 12 hours. Absorbance at 570 nm was read in a reader, and IC50 was calculated.

U87 = test: MTT tumor cell proliferation, U87; assay type: cell-based; conditions: Homo sapiens, U-87 MG; U87, Brain glioma, 72 hour
Procedure: as §1, §2

PI3K γ isoform = PI3K γ isoform (Homo sapiens, UniProt P48736); test: PI3K γ isoform inhibition; conditions: one of the other three isoforms
SNU-5 = test: MTT tumor cell proliferation, SNU-5; assay type: cell-based; conditions: Homo sapiens; SNU-5, Gastric cancer, 72 hour
Procedure: as §1, §2

MV-4-11 cells = test: MV-4-11 AML xenograft in mice, combination with daunorubicin (Example 8); assay type: in vivo, BALB-cA nude mice; conditions: 30 mg/kg P.O., D0-10
Procedure: Mice body weights and tumor sizes were measured twice a week. The tumor volume, T/C and TGI (Tumor growth inhibition=(average tumor volume in vehicle group-average tumor volume in administration group)/average tumor volume in vehicle group ×100%) were calculated. Mice were sacrificed on Day 21. Female BALB-cA nude mice, 6-7 weeks old, purchased from Shanghai Ling-chang Biotech Co., Ltd, were subcutaneously inoculated with MV-4-11 cells (from ATCC). […] Mice body weights and tumor sizes were measured twice a week. The tumor volume, T/C and tumor volume based TGI were calculated as described above. Mice were sacrificed on Day 11.

PI3K β isoform = PI3K β isoform (Homo sapiens, UniProt P42338); conditions: one of the other three isoforms
THP-1 = test: MTT tumor cell proliferation, THP-1; assay type: cell-based; conditions: Homo sapiens; THP-1, Acute monocytic leukemia, 72 hour
Procedure: as §1, §2

H69 = test: Tumor cell death by MTT, H69; assay type: cell-based, human; conditions: 20 nM
Procedure: The in vitro inhibitory effect of Compound A alone or in combination with a PARP inhibitor on tumor cell growth was tested using human small cell lung cancer (SCLC) cell lines, including H69 (ATCC® HTB-119™), H526 (ATCC® CRL-5811™) and H446 (TCHu196, National Collection of Authenticated Cell Cultures).
Briefly, the cells were seeded into a 96-well dish with RPMI-1640 (10-040-CV, Coming cellgro) containing 10% fetal bovine serum (10270-106, GIBCO), 1% penicillin and 1% streptomycin (BaSalMedia, S110JV), at an initial density of 3×10^3 cells per well ([…]), and cultured at a 37° C., 5% CO2 humidified incubator for 24 hours. Then, the culture media were added with Compound A (final concentration at 20 nM), olaparib (APEXBIO, A4154, a PARP inhibitor, final concentration at 10 μM), Compound A + olaparib (final concentrations at20 nM and 10 μM), or PBS (vehicle), respectively, and the cells were cultured for 48 hours. Then, cell viability was determined by MTT. The test was done in triplicate.
Cell death rate was calculated by the following formula.
Cell death rate=[1−(ODtest-ODvehicle)]×100%
Cell death rates were analyzed using student's t-test, and group differences were deemed statistically significant when the p-value was lower than 0.05. Zheng-Jun Jin's Q value was calculated using the formula Q=EA+B/(EA+EB-EA×EB) to assess the combined effect of Compound A and the PARP inhibitor, wherein EA+B, EA, and EB referred to the cell death rates caused by the combined treatment, Compound A treatment and PARP inhibitor treatment, respectively. A Q value higher than 1.15 meant a synergistic […] effect.
Another PARP inhibitor, rucaparib (APEXBIO, A4156), was tested alone or with Compound A for inhibitory effect on tumor cell growth, following the protocol of Example 9.

K562 = test: MTT tumor cell proliferation, K562; assay type: cell-based; conditions: Homo sapiens; K562, Chronic myeloid leukemia, 72 hour
Procedure: as §1, §2

PI3K δ isoform = PI3K δ isoform (Homo sapiens, UniProt O00329); test: biochemical
PI3K α isoform = PI3K α isoform (Homo sapiens, UniProt P42336); conditions: one of the other three isoforms
HT-29 = test: MTT tumor cell proliferation, HT-29; assay type: cell-based; conditions: Homo sapiens; HT-29, Colon cancer, 72 hour
Procedure: as §1, §2

Ls-174t = test: MTT tumor cell proliferation, Ls-174t; assay type: cell-based; conditions: Homo sapiens, LS174T, Colon cancer, 72 hour
Procedure: as §1, §2

RS 4;11 = test: MTT tumor cell proliferation, RS 4;11; assay type: cell-based; conditions: Homo sapiens, RS4-11; RS 4;11, Acute lymphocytic leukemia, 72 hour
Procedure: as §1, §2

Reh = test: MTT tumor cell proliferation, Reh; assay type: cell-based; conditions: Homo sapiens, Acute lymphocytic leukemia, 72 hour
Procedure: as §1, §2

leukemia cell lines = test: MTT tumor cell proliferation, leukemia cell lines (summary); assay type: cell-based; conditions: summary of Table 2
Procedure: as §1, §2

A549 = test: MTT tumor cell proliferation, A549; assay type: cell-based; conditions: Homo sapiens; A549, Lung cancer, 72 hour
Procedure: as §1, §2

NCI-H460 = test: MTT tumor cell proliferation, NCI-H460; assay type: cell-based; conditions: Homo sapiens; NCI-H460, Lung cancer, 72 hour
Procedure: as §1, §2

MV-4-11 = test: MTT tumor cell proliferation, MV-4-11; assay type: cell-based; conditions: Homo sapiens, MV4-11; MV-4-11, Acute myeloid leukemia, 72 hour
Procedure: as §1, §2

Chain of PI3K γ isoform (P48736 whole entry, canonical isoform): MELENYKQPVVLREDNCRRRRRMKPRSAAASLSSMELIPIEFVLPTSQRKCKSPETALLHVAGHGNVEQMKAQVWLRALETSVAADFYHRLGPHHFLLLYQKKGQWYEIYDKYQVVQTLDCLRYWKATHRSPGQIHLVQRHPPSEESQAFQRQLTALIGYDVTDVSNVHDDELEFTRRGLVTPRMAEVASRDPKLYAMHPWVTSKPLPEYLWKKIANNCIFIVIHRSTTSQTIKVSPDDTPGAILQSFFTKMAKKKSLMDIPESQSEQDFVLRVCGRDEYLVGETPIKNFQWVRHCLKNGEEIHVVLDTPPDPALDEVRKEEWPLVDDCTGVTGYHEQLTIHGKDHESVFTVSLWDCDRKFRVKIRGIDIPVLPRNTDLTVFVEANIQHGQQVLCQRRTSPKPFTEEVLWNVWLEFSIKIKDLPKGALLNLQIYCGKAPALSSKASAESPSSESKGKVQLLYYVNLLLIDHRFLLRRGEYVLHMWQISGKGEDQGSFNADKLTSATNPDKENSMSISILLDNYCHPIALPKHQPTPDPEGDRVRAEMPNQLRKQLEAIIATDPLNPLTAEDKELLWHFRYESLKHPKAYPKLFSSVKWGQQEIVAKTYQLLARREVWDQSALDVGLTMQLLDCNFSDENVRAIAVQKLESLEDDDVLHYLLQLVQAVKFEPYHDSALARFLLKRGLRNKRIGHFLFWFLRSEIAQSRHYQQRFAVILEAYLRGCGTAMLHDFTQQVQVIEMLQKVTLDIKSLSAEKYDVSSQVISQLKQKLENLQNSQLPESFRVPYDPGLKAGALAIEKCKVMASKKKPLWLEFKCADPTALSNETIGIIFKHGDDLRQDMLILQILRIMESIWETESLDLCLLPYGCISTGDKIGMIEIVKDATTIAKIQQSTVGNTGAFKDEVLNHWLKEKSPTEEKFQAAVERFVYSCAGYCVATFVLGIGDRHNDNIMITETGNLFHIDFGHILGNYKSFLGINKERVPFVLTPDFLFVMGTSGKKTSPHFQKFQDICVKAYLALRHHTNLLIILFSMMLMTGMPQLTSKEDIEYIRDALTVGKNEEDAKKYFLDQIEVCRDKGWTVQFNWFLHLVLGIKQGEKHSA
Chain of PI3K α isoform (P42336 whole entry, canonical isoform): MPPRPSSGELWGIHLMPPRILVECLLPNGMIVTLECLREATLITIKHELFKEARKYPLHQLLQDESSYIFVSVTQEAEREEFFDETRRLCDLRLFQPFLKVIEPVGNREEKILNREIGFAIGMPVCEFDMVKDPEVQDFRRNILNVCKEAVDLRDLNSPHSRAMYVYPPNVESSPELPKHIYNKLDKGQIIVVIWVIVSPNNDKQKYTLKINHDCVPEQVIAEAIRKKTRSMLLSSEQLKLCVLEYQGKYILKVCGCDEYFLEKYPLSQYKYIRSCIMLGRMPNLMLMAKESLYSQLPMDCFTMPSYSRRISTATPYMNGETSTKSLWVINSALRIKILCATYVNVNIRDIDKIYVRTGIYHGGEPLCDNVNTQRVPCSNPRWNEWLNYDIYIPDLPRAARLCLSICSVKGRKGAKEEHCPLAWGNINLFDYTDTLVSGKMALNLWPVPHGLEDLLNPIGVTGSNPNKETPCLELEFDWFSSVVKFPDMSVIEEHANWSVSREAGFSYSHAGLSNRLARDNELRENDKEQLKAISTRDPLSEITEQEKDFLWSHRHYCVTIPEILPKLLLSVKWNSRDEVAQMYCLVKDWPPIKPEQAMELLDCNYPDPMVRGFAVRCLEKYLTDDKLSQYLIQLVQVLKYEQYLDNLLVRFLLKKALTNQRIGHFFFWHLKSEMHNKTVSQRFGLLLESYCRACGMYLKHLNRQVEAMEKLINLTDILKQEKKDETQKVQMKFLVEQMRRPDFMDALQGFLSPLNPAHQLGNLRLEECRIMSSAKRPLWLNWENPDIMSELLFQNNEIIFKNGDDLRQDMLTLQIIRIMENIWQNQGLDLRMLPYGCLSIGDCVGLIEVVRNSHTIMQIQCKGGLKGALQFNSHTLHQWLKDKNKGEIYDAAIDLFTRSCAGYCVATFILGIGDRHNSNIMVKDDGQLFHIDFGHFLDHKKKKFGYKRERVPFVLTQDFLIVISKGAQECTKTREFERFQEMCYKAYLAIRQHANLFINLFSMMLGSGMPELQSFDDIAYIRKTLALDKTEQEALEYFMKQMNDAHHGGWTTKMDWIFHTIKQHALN
Chain of PI3K α isoform (P27986 whole entry partner, canonical isoform): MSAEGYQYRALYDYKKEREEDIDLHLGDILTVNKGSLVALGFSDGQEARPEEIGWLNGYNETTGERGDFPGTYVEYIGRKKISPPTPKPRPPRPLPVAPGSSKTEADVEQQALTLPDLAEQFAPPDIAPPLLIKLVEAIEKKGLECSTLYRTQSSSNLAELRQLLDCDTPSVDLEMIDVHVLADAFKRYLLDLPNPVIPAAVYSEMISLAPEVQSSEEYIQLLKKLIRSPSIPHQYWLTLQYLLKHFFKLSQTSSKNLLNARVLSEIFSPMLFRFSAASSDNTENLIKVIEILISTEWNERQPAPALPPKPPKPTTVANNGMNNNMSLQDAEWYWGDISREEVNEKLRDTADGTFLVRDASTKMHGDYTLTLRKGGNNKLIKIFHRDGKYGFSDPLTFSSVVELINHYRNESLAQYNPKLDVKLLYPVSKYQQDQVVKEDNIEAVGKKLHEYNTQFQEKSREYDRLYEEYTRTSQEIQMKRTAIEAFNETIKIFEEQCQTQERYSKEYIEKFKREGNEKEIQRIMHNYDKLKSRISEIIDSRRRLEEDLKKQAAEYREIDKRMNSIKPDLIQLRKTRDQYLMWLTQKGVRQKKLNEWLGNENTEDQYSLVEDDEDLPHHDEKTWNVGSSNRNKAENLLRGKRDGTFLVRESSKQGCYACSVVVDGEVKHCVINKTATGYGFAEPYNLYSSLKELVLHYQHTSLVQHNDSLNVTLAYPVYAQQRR
Chain of PI3K δ isoform (O00329 whole entry, canonical isoform): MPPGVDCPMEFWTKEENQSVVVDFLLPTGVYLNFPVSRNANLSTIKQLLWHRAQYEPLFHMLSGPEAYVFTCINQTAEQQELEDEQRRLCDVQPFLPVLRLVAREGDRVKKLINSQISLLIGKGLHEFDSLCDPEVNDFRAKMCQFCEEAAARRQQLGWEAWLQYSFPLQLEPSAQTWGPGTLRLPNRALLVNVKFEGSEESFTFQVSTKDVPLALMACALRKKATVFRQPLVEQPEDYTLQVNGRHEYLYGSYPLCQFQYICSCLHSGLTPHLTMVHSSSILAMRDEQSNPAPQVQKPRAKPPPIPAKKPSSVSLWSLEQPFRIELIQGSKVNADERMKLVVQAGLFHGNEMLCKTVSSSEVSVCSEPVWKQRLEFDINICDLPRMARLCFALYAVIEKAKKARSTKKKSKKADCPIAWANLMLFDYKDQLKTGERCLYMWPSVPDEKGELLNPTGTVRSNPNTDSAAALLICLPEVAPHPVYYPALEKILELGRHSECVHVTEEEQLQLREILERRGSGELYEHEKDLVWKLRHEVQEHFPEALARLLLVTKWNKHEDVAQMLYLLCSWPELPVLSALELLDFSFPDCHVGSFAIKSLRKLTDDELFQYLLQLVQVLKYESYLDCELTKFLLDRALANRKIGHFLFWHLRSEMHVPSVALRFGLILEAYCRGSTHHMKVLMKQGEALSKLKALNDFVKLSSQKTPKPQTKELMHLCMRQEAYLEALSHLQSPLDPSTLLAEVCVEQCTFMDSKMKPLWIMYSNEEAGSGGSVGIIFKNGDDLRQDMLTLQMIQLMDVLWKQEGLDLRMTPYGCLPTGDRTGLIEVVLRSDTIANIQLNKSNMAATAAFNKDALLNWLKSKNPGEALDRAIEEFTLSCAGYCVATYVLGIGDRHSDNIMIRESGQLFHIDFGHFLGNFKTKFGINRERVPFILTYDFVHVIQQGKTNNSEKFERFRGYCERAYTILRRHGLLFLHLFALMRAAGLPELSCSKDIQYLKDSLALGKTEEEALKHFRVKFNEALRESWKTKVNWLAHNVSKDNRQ
Chain of PI3K δ isoform (P27986 whole entry partner, canonical isoform): as the sequence (P27986 whole entry partner, canonical isoform) above
Chain of PI3K β isoform (P42338 whole entry, canonical isoform): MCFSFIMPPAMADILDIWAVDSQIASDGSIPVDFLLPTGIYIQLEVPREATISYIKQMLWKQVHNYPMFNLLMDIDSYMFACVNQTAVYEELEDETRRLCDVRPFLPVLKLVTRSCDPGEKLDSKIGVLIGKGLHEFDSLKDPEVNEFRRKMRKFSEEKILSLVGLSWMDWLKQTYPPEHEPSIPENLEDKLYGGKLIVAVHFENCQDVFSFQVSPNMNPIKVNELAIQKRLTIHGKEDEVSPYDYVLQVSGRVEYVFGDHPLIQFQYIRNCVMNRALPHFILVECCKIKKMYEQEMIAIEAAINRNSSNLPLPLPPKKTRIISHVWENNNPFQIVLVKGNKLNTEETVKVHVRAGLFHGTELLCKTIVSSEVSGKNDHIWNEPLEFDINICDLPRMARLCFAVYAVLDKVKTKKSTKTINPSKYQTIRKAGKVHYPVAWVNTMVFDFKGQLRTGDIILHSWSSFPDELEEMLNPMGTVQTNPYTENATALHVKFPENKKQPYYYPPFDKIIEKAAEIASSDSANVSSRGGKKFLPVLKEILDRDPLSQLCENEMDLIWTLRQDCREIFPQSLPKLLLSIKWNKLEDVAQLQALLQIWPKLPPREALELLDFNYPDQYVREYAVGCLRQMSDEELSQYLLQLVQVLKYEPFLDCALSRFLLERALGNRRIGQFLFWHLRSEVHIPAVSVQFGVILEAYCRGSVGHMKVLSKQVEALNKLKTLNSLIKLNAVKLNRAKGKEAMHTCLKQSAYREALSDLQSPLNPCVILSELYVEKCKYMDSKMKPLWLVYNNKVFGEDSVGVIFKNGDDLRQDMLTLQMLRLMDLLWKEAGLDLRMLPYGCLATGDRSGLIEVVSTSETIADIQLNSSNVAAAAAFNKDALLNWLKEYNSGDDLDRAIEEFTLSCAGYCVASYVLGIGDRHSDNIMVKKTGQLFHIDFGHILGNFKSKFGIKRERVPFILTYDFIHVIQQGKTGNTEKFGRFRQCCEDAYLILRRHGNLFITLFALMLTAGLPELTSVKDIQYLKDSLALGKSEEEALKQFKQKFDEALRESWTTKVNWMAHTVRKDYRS
Chain of PI3K β isoform (P27986 whole entry partner, canonical isoform): as the sequence (P27986 whole entry partner, canonical isoform) above

## c1cnc2ccc(Nc3nc(NC4CC4)c4nc[nH]c4n3)cc2c1 [Compound A]
HL-60
  IC50: 500 ± 300 nM
U87
  IC50: 9700 ± 7000 nM
PI3K γ isoform
  EC50, PI3K γ isoform: at the μM level
SNU-5
  IC50: 12100 ± 2000 nM
MV-4-11 cells; D11
  T/C: 71%
  TGI: 29%
MV-4-11 cells; in mm³
  Tumor volume D0: 150.9
  Tumor volume D11: 2076.3
PI3K β isoform
  EC50, PI3K β isoform: at the μM level
THP-1
  IC50: 1600 ± 1600 nM
H69; 48 hours, Table 10
  Cell Death Rate/% 1: 6.75%
  Cell Death Rate/% 2: 6.48%
  Cell Death Rate/% 3: 6.31%
  Cell Death Rate/% mean: 6.51%
H69; Example 10, Table 11
  Cell Death Rate/% 1: 7.36%
  Cell Death Rate/% 2: 7.65%
  Cell Death Rate/% 3: 7.02%
  Cell Death Rate/% mean: 7.34%
K562
  IC50: 1200 ± 100 nM
PI3K δ isoform
  EC50: ~90 nM
PI3K α isoform
  EC50, PI3K α isoform: at the μM level
HT-29
  IC50: 6100 ± 200 nM
Ls-174t
  IC50: 5900 ± 900 nM
RS 4;11
  IC50: 400 ± 100 nM
Reh
  IC50: 800 ± 100 nM
Leukemia cell lines
  IC50: ≤ 1600 nM
A549
  IC50: 2300 ± 800 nM
NCI-H460
  IC50: 4000 ± 400 nM
MV-4-11
  IC50: 300 ± 100 nM
